Measurements taken from ChEMBL document CHEMBL4130414, “Asymmetric synthesis of novel triazole derivatives and their in vitro antiviral activity and mechanism of action” (Eur J Med Chem, 2017).
≈ marks a conversion by molar mass, not a printed value. Calls of active or inactive are those of the source. The calls are words filed in the database; no cut-off is given here.

How the values were obtained:
[1] = Cytotoxicity against human RD cells assessed as reduction in cell viability after 3 days by MTT assay; assay type: cell-based
[2] = Cytotoxicity against human Hep2 cells assessed as reduction in cell viability after 3 days by MTT assay; assay type: cell-based; conditions: HEp-2 cells
[3] = system: Enterovirus A71; assay: Antiviral activity against EV71 Xiangyang-Hubei-09 infected in human RD cells assessed as inhibition of virus-induced cytopathic effect at 16 ug/ml treated 1 hr post viral infection measured after 48 hrs by MTT dye based assay relative to control; assay type: functional; conditions: for inhibition at 16 µg/mL: Enterovirus A, Xiangyang-Hubei-09, RD
[4] = system: Enterovirus A71; assay: Antiviral activity against EV71 Xiangyang-Hubei-09 infected in human RD cells assessed as alteration in viral cell morphology at 16 ug/ml after 48 hrs; assay type: functional, organism-based
[5] = Selectivity index, ratio of CC50 for human RD cells to EC50 for EV71 Xiangyang-Hubei-09 infected in human RD cells; assay type: toxicity, cell-based; conditions: read-out: Ratio CC50/EC50
[6] = system: Enterovirus A71; assay: Antiviral activity against EV71 Xiangyang-Hubei-09 infected in human RD cells assessed as inhibition of virus-induced cytopathic effect by MTT dye based assay; assay type: functional, organism-based
[7] = system: Coxsackievirus B3; assay: Antiviral activity against Coxsackievirus B3 (strain Nancy) infected in human HEP2 cells assessed as inhibition of virus-induced cytopathic effect by MTT dye based assay; assay type: functional, organism-based
[8] = Selectivity index, ratio of CC50 for human HEP2 cells to EC50 for Coxsackievirus B3 (strain Nancy) infected in human HEP cells; assay type: toxicity, cell-based; conditions: HEp-2 cells, read-out: Ratio CC50/EC50
[9] = system: Coxsackievirus B3; assay: Antiviral activity against Coxsackievirus B3 (strain Nancy) infected in human HEP2 cells assessed as inhibition of virus-induced cytopathic effect at 16 ug/ml after 48 hrs by MTT dye based assay; assay type: functional, organism-based
[10] = system: Enterovirus A71; assay: Antiviral activity against EV71 Xiangyang-Hubei-09 infected in human RD cells assessed as inhibition of virus-induced cytopathic effect at 16 ug/ml preincubated with RD cells for 2 hrs followed by washing with PBS and subsequent viral infection measured after 48 hrs by MTT assay; assay type: functional, organism-based
[11] = system: Enterovirus A71; assay: Antiviral activity against EV71 Xiangyang-Hubei-09 infected in human RD cells assessed as inhibition of viral adsorption at 16 ug/ml treated simultaneously with viral infection for 2 hrs followed by washing with PBS measured after 48 hrs; assay type: functional, organism-based
[12] = system: Enterovirus A71; assay: Antiviral activity against EV71 Xiangyang-Hubei-09 infected in human RD cells at 16 ug/ml preincubated with RD cells for 2 hrs followed by washing with PBS and subsequent viral infection measured after 48 hrs; assay type: functional, organism-based
[13] = system: Enterovirus A71; assay: Antiviral activity against EV71 Xiangyang-Hubei-09 infected in human RD cells assessed as reduction in progeny viral yield at 16 ug/ml treated 1 hr post viral infection measured after 48 hrs; assay type: functional
[14] = Enterovirus A, Xiangyang-Hubei-09, RD, read-out: EC50
[15] = Enterovirus B, Nancy, HEp-2, read-out: EC50

Structure (SMILES) | CC50 at 72 h [1] [µg/mL] | CC50 at 72 h [2] [µg/mL] | selectivity ratio [5] | EC50 [6, 14] [µg/mL] | EC50 [7, 15] [µg/mL] | selectivity ratio [8] | also measured
CCC[C@H](CCn1cncn1)c1ccc(C)cc1 | 47.2 (≈ 194 µM) | 45.7 (≈ 188 µM) |  |  |  |  | 
CC[C@@H](CCn1cncn1)c1ccc(OC)cc1 | 115 (≈ 469 µM) | 146 (≈ 596 µM) | 21.7 | 5.3 (≈ 21.6 µM) | 10.1 (≈ 41.2 µM) | 14.5 | inhibition at 16 µg/mL [3]: 88.1%; inhibition [4]: Active; inhibition [6]: Dose-dependent effect; inhibition [7]: Dose-dependent effect; inhibition [9]: Active
CCCC[C@H](CCn1cncn1)c1ccc(C)cc1 | 26.5 (≈ 103 µM) | 23.7 (≈ 92.1 µM) |  |  |  |  | 
CCCC[C@@H](CCn1cncn1)c1ccc(OC)cc1 | 39.4 (≈ 144 µM) | 31.6 (≈ 116 µM) |  |  |  |  | 
CC[C@H](CCn1cncn1)c1ccc(Cl)cc1 | 57 (≈ 228 µM) | 50.6 (≈ 203 µM) |  |  | 13.5 (≈ 54.1 µM) | 3.7 | EC50 ([6]; rd): Not Active
CCCC[C@H](CCn1cncn1)c1ccc(F)cc1 | 35.2 (≈ 135 µM) | 38.5 (≈ 147 µM) |  |  |  |  | 
CCCC[C@H](CCn1cncn1)c1ccc(Cl)cc1Cl | 10.1 (≈ 32.3 µM) | 13.4 (≈ 42.9 µM) |  |  |  |  | 
CCCC[C@H](CCn1cncn1)c1ccccc1 | 48.3 (≈ 198 µM) | 50.2 (≈ 206 µM) | 4 | 12.1 (≈ 49.7 µM) | 10.4 (≈ 42.7 µM) | 4.8 | 
CCC[C@H](CCn1cncn1)c1ccc(F)cc1 | 38.4 (≈ 155 µM) | 39.3 (≈ 159 µM) |  |  |  |  | 
CC[C@H](CCn1cncn1)c1ccc(OC)cc1 | 118 (≈ 483 µM) | 153 (≈ 625 µM) | 7.4 | 15.9 (≈ 64.8 µM) | 15.1 (≈ 61.6 µM) | 10.2 | 
Cc1ccc([C@@H](CCn2cncn2)Cc2ccccc2)cc1 | 109 (≈ 373 µM) | 83.3 (≈ 286 µM) |  |  |  |  | 
COc1ccc([C@H](CCn2cncn2)Cc2ccccc2)cc1 | 66 (≈ 215 µM) | 60.3 (≈ 196 µM) | 5.4 | 12.2 (≈ 39.7 µM) | 12.2 (≈ 39.7 µM) | 4.9 | 
CCC[C@@H](CCn1cncn1)c1ccc(F)cc1 | 56.9 (≈ 230 µM) | 55.3 (≈ 224 µM) |  |  |  |  | 
Cc1ccc(C[C@H](CCn2cncn2)c2ccccc2)cc1 | 37.8 (≈ 130 µM) | 38.8 (≈ 133 µM) |  |  | 7.4 (≈ 25.4 µM) | 5.2 | EC50 ([6]; rd): Not Active
Clc1ccc([C@H](CCn2cncn2)Cc2ccccc2)cc1 | 21.7 (≈ 69.6 µM) | 25.7 (≈ 82.4 µM) |  |  |  |  | 
c1ccc(C[C@H](CCn2cncn2)c2ccccc2)cc1 | 55.4 (≈ 200 µM) | 60.9 (≈ 220 µM) | 4.4 | 12.7 (≈ 45.8 µM) | 14.9 (≈ 53.7 µM) | 4.1 | 
CCCC[C@@H](CCn1cncn1)c1ccc(Cl)cc1 | 18.7 (≈ 67.3 µM) | 17 (≈ 61.2 µM) |  |  |  |  | 
CCC[C@H](CCn1cncn1)c1ccccc1 | 63.1 (≈ 275 µM) | 58.4 (≈ 255 µM) |  |  |  |  | 
CCCC[C@@H](CCn1cncn1)c1ccc(F)cc1 | 34.1 (≈ 130 µM) | 36 (≈ 138 µM) |  |  |  |  | 
CCCC[C@H](CCn1cncn1)c1ccc(OC)cc1 | 28.3 (≈ 104 µM) | 34.5 (≈ 126 µM) |  |  |  |  | 
Clc1ccc([C@H](CCn2cncn2)Cc2ccccc2)c(Cl)c1 | 1.9 (≈ 5.49 µM) | 4.9 (≈ 14.2 µM) |  |  |  |  | 
NC(=O)c1ncn([C@@H]2O[C@H](CO)[C@@H](O)[C@H]2O)n1 [RIBAVIRIN] | 486 (≈ 1990 µM) | 572 (≈ 2340 µM) | 15 | 32.5 (≈ 133 µM) | 42.9 (≈ 176 µM) | 13.3 | inhibition [3]: Active; inhibition [9]: Active
c1ccc(C[C@@H](CCn2cncn2)c2ccccc2)cc1 | 56 (≈ 202 µM) | 55.9 (≈ 202 µM) |  |  |  |  | 

Structure (SMILES) | CC50 at 72 h [1] [µg/mL] | CC50 at 72 h [2] [µg/mL] | selectivity ratio [5] | EC50 [6, 14] [µg/mL] | EC50 [7, 15] [µg/mL] | selectivity ratio [8] | also measured
Cc1ccc([C@H](CCn2cncn2)Cc2ccccc2)cc1 | 117 (≈ 402 µM) | 152 (≈ 522 µM) | 12.7 | 9.2 (≈ 31.6 µM) | 13.6 (≈ 46.7 µM) | 11.2 | 
Clc1ccc([C@@H](CCn2cncn2)Cc2ccccc2)cc1 | 24.4 (≈ 78.3 µM) | 25.9 (≈ 83.1 µM) |  |  |  |  | 
c1ccc(C(CCn2cncn2)C2CCCCC2)cc1 (single isomer, unassigned; 39) | 11.8 (≈ 43.8 µM) | 24.8 (≈ 92.1 µM) |  |  | 5.1 (≈ 18.9 µM) | 4.9 | EC50 ([6]; rd): Not Active
CC[C@@H](CCn1cncn1)c1ccc(F)cc1 | 91.6 (≈ 393 µM) | 90.3 (≈ 387 µM) |  |  |  |  | EC50 ([6]; rd): Not Active; EC50 [7]: Not Active
CC[C@@H](CCn1cncn1)c1ccccc1 | 91.2 (≈ 424 µM) | 89.9 (≈ 418 µM) |  |  |  |  | 
CC[C@H](CCn1cncn1)c1ccccc1 | 99.8 (≈ 464 µM) | 97.7 (≈ 454 µM) |  |  |  |  | 
CCC[C@@H](CCn1cncn1)c1ccc(C)cc1 | 74.1 (≈ 304 µM) | 71.3 (≈ 293 µM) | 6.8 | 10.9 (≈ 44.8 µM) | 10.3 (≈ 42.3 µM) | 6.9 | 
CC[C@H](CCn1cncn1)c1ccc(F)cc1 | 110 (≈ 473 µM) | 103 (≈ 442 µM) |  |  |  |  | EC50 ([6]; rd): Not Active; EC50 [7]: Not Active
CCCC[C@@H](CCn1cncn1)c1ccc(C)cc1 | 56.5 (≈ 220 µM) | 60.7 (≈ 236 µM) |  |  |  |  | EC50 ([6]; rd): Not Active; EC50 [7]: Not Active
CCCC[C@@H](CCn1cncn1)c1ccccc1 | 47.5 (≈ 195 µM) | 40.8 (≈ 168 µM) |  |  |  |  | EC50 ([6]; rd): Not Active; EC50 [7]: Not Active
CCC[C@@H](CCn1cncn1)c1ccc(Cl)cc1 | 40.8 (≈ 155 µM) | 36.6 (≈ 139 µM) |  |  |  |  | 
CC[C@@H](CCn1cncn1)c1ccc(Cl)cc1 | 55.3 (≈ 221 µM) | 55.1 (≈ 221 µM) | 10.2 | 5.4 (≈ 21.6 µM) | 10.5 (≈ 42 µM) | 5.2 | 
C[C@H](CCn1cncn1)Cc1ccccc1 | 153 (≈ 710 µM) | 144 (≈ 670 µM) | 24.7 | 6.2 (≈ 28.8 µM) | 11.4 (≈ 52.9 µM) | 12.6 | inhibition [10]: inactive; inhibition at 16 µg/mL [3]: 72%; inhibition [11]: Active; inhibition [12]: inactive; inhibition [4]: Active; log(activity) [13]: 4.7; inhibition [6]: Dose-dependent effect; inhibition [7]: Dose-dependent effect; inhibition [9]: Active
C[C@@H](CCn1cncn1)Cc1ccccc1 | 114 (≈ 530 µM) | 131 (≈ 609 µM) | 12.6 | 9.1 (≈ 42.3 µM) | 10.3 (≈ 47.8 µM) | 12.7 | inhibition [3]: Active; inhibition [4]: Active; inhibition [6]: Dose-dependent effect; inhibition [7]: Dose-dependent effect; inhibition [9]: Active
CCCC[C@H](CCn1cncn1)c1ccc(Cl)cc1 | 20.3 (≈ 73.1 µM) | 20.2 (≈ 72.7 µM) |  |  |  |  | 
CC[C@@H](CCn1cncn1)c1ccc(C)cc1 | 79.4 (≈ 346 µM) | 69.9 (≈ 305 µM) | 14.7 | 5.4 (≈ 23.5 µM) | 6 (≈ 26.2 µM) | 11.7 | inhibition [10]: inactive; inhibition at 16 µg/mL [3]: 81%; inhibition [11]: Active; inhibition [12]: inactive; inhibition [4]: Active; log(activity) [13]: 4.7; inhibition [6]: Dose-dependent effect; inhibition [7]: Dose-dependent effect; inhibition [9]: Active
Clc1ccc([C@@H](CCn2cncn2)Cc2ccccc2)c(Cl)c1 | 6.5 (≈ 18.8 µM) | 11.1 (≈ 32.1 µM) |  |  |  |  | 
c1ccc(C(CCn2cncn2)C2CCCCC2)cc1 (single isomer, unassigned; 40) | 9.2 (≈ 34.2 µM) | 21.8 (≈ 80.9 µM) |  |  | 4.7 (≈ 17.4 µM) | 4.6 | EC50 ([6]; rd): Not Active
CCCC[C@@H](CCn1cncn1)c1ccc(Cl)cc1Cl | 1.9 (≈ 6.08 µM) | 6.5 (≈ 20.8 µM) |  |  |  |  | 
CC[C@H](CCn1cncn1)c1ccc(C)cc1 | 85.2 (≈ 372 µM) | 75.2 (≈ 328 µM) | 12.9 | 6.6 (≈ 28.8 µM) | 12.1 (≈ 52.8 µM) | 6.2 | 
Cc1ccc(C(CCn2cncn2)C2CCCCC2)cc1 (single isomer, unassigned) | 57.9 (≈ 204 µM) | 57.3 (≈ 202 µM) | 5.5 | 10.6 (≈ 37.4 µM) | 11.7 (≈ 41.3 µM) | 4.9 | 
CCC[C@H](CCn1cncn1)c1ccc(OC)cc1 | 59.3 (≈ 229 µM) | 59.6 (≈ 230 µM) |  |  |  |  | 
